Assay results taken from patent publication US20110123490A1, “HE[…] COMPOUNDS” (priority 2009, published 2011).

What was measured:
[1] = biological target: T1, HCV polymerase (NS5B570n-Con1) (Hepatitis C virus genotype 1b, UniProt Q9WMX2); test: HCV NS5B RNA polymerase activity assay (incorporation of radiolabeled nucleotide into RNA); type: biochemical, HCV Con1 strain
T1 construct: contains a 21 amino acid deletion at the C-terminus relative to the full-length HCV polymerase; 6-histidine (N); made in house; host or cells: E. coli BL21(DE) pLysS, plasmid pET17b
Protocol: The enzymatic activity of HCV polymerase (NS5B570n-Con1) was measured as the incorporation of radiolabeled nucleotide monophosphates into acid insoluble RNA products. Unincorporated radiolabeled substrate was removed by filtration and scintillant was added to the washed and dried filter plate containing radiolabeled RNA product. The amount of RNA product generated by NS5B570-Con1 at the end of the reaction was directly proportional to the amount of light emitted by the scintillant.
The N-terminal 6-histidine tagged HCV polymerase, derived from HCV Con1 strain, genotype 1b (NS5B570n-Con1) contains a 21 amino acid deletion at the C-terminus relative to the full-length HCV polymerase and was purified from E. coli strain BL21(DE) pLysS. The construct, containing the coding sequence of HCV NS5B Con1 (GenBank accession number AJ242654) was inserted into the plasmid construct pET17b, downstream of a T7 promoter expression cassette and transformed into E. coli. A single colony was grown overnight as a starter culture and later used inoculate 10 L of LB media supplemented with 100 μg/mL ampicillin at 37° C. Protein expression was induced by the addition of 0.25 mM isopropyl-β-D-thiogalactopyranoside (IPTG) when optical density at […] of the culture was between 0.6 and 0.8 and cells were harvested after 16 to 18 h at 30° C. NS5B570n-Con1 was purified to homogeneity using a three-step protocol including subsequent column chromatography on Ni-NTA, SP-Sepharose HP and Superdex 75 resins.
Each 50 μL enzymatic reaction contained 20 nM RNA template derived from the complementary sequence of the Internal Ribosome Entry Site (cIRES), 20 nM NS5B570n-Con1 enzyme, 0.5 μCi of tritiated UTP (Perkin Elmer catalog no. TRK-412; specific activity: 30 to 60 Ci/mmol; stock solution concentration from 7.5×10^−5 M to 20.6×10^−6 M), 1 μM each ATP, CTP, and GTP, 40 mM Tris-HCl pH 8.0, 40 mM NaCl, 4 mM DTT (dithiothreitol), 4 mM MgCl2, and 5 μL of compound serial diluted in DMSO. Reaction mixtures were assembled in 96-well filter plates (cat #MADVN0B, Millipore Co.) and incubated for 2 h at 30° C. Reactions were stopped by addition of 10% final (v/v) trichloroacetic acid and incubated for 40 min at 4° C. […]
The amount of light emitted from the scintillant was converted to counts per minute (CPM) on a Topcount® plate reader (Perkin-Elmer, Energy Range: Low, Efficiency Mode Normal, Count Time: 1 min, Background Subtract: none, Cross talk reduction: Off).
Data was analyzed in Excel® (Microsoft®) and ActivityBase® (Idbs®). […] All data was expressed as a percentage of the positive control. […]

[2] = in vitro; settings: human
[3] = system: HCV replicon cells (2209-23), genotype 1b replicon in Huh7 cells; test: HCV replicon assay (Renilla luciferase reporter); type: cell-based, HCV genotype 1b; settings: Hepatitis C virus, Huh-7, 72 h; 2209-23 cells, three days incubation, luciferase readout

Row | SMILES | IC50 [1] [nM] | CC50 [2] [nM] | IC50 [3] [nM]
1 | CC1(C)COc2c(-n3ccc(=O)[nH]c3=O)cc(-c3ccc4cc(NS(C)(=O)=O)ccc4c3)cc21 [Compound I-1, N-{6-[7-(2,4-Dioxo-3,4-dihydro-2H-pyrimidin-1-yl)-3,3-dimethyl-2,3-dihydro-benzofuran-5-yl]-naphthalen-2-yl}-methanesulfonamide] | 0.5 |  | 
2 | COc1c(-c2ccc3cc(NS(C)(=O)=O)ccc3c2)cc(-n2ccc(=O)[nH]c2=O)c2c1C(C)(C)CO2 [Compound I-2, N-{6-[7-(2,4-Dioxo-3,4-dihydro-2H-pyrimidin-1-yl)-4-methoxy-3,3-dimethyl-2,3-dihydro-benzofuran-5-yl]-naphthalen-2-yl}-methanesulfonamide] | 0.6 | 12000 | 5.2
3 | COc1c(-c2ccc3cc(NS(C)(=O)=O)ccc3c2)cc(N2CCC(=O)NC2=O)c2c1C(C)(C)CO2 [Compound I-3, N-{6-[7-(2,4-Dioxo-tetrahydro-pyrimidin-1-yl)-4-methoxy-3,3-dimethyl-2,3-dihydro-benzofuran-5-yl]-naphthalen-2-yl}-methanesulfonamide] | 4.7 |  | 
4 | CC1(C)COc2c(-c3ccc4cc(NS(C)(=O)=O)ccc4c3)cc(-n3ccc(=O)[nH]c3=O)cc21 [Compound I-4, N-{6-[5-(2,4-Dioxo-3,4-dihydro-2H-pyrimidin-1-yl)-3,3-dimethyl-2,3-dihydro-benzofuran-7-yl]-naphthalen-2-yl}-methanesulfonamide] | 0.9 | 2700 | 106
